These are literature values, as cited in patent publication US20230398240A1, “THERAPEUTIC RADIOLABELLED CONJUGATES AND THEIR USE IN THERAPY” (priority 2020, published 2023).

Data set [1] relates to quiescent endothelial cells. Particulars: in vitro.

For the compound `N[C@@H](CCC(=O)N[C@@H](CSCC(=O)Nc1ccc([As](O)O)cc1)C(=O)NCC(=O)O)C(=O)O` [GSAO, 4-(N—(S-glutathionylacetyl)amino)phenylarsenous acid], the “toxicity to proliferating cells” value in the data set on proliferating cells was “toxic to proliferating cells”. For the same compound, the “effect on angiogenesis in vivo” value in the data set on angiogenesis is “inhibits angiogenesis in vivo”. In addition, in data set [1], the “toxicity to quiescent endothelial cells” value was “nontoxic to quiescent endothelial cells”.
